Results on four compounds are retold here after US10675275B2, “Prophylactic and/or therapeutic agent for fibromyalgia” (ONO PHARMACEUTICAL CO., LTD., priority 2015, dated 2020).

The test has as its system rat somatic hyperalgesia model. Briefly: Efficacy in a rat somatic hyperalgesia model (acid saline, Randall-Selitto pain threshold). Conditions: SD male rats, right hind paw (non-challenged side), oral. Type of test: in vivo. The method, then:
SD male rats (Charles River Laboratories Japan, Inc., 5 weeks old upon usage) were used. Under isoflurane anaesthesia, rats were intramuscularly administered with 100 μL of acidic saline of pH 4.0 in the left gastrocnemius. After 5 days of administration, rats again received 100 μL of acid saline in the left gastrocnemius. In the normal group, rats were intramuscularly administered with 100 μL of saline twice in total with 5 days apart in the left gastrocnemius (see Muscle Nerve, vol. 24, pp. 37-46, 2001).
The pain threshold was measured on a Randall-Selitto pressure analgesy-meter (Ugo Basile). Briefly, rats were securely fixed and uniformly and continuously increasing pressure was applied to the hind paws. […] For each of the left and right hind paws, tests were carried out three times at each evaluation point and the values were averaged to obtain the pain threshold.
For the normal group, rats were arbitrarily selected from those showing the pain threshold on the day before the first administration of acid saline of 140 g or more for both left and right hind paws. After being divided into groups, administration of the test compound (the present compound (the compound described in Example 38 of PTL 1), comparative compound A (the compound described in Example 38(5) of PTL 1), comparative compound B (the compound described in Example 41(2) of PTL 1), comparative compound C (1-(2-chlorophenyl)-N-methyl-N-(1-methylpropyl)isoquinoline-3-carboxamide (PK11195), CAS registry No.: 85532-75-8), a control substance (duloxetine hydrochloride, pregabalin) or a vehicle (0.5 w/v % methylcellulose 400 cP solution)) was started on the same day. On day 1 and day 7 of administration of each drug solution, the pain threshold on left and right hind paws was measured in a blind manner 2 hours after the first administration. Duloxetine hydrochloride was orally administered once a day and other agents were orally administered twice a day.

Counter-ions that a name gives are not always drawn.

As to `CCC(C)N(C)C(=O)c1cc2ccccc2c(-c2ccccc2Cl)n1` (centres unmarked) [comparative compound C, 1-(2-chlorophenyl)-N-methyl-N-(1-methylpropyl)isoquinoline-3-carboxamide], the “pain threshold (efficacy for the pain threshold decreased in the control group)” value (day 7, before and 2 hours after administration, 1 mg/kg, twice a day) is on record as “did not show the efficacy”.

Turning to `CNCC[C@H](Oc1cccc2ccccc12)c1cccs1` [duloxetine hydrochloride], where the note is “day 7, before and 2 hours after administration, 30 mg/kg, once a day”, the “pain threshold (suppression of the decrease caused by acid saline)” value was “suppressed this decrease of the pain threshold”.

In the case of `CC(C)C[C@H](CN)CC(=O)O` [pregabalin], the “pain threshold (suppression of the decrease caused by acid saline)” value (day 7, before and 2 hours after administration, 20 mg/kg, twice a day) was “suppressed this decrease of the pain threshold”.

As to `COc1cc(Cl)ccc1[C@H]1c2[nH]c3cccc(F)c3c2C2(CC2)CN1C(C)=O` [the present compound, (1S)-2-acetyl-1-(4-chloro-2-methoxyphenyl)-5-fluoro-1,2,3,9-tetrahydrospiro[β-carboline-4,1′-cyclopropane]], the “pain threshold (suppression of the decrease caused by acid saline)” value by setting is: (day 7 of administration, before and 2 hours after administration, 0.1, 1 or 10 mg/kg, twice a day) “significant suppression”; (day 7 of administration, before and 2 hours after administration, 0.1, 1 or 10 mg/kg, twice a day, listed as The present compound) “suppressed this decrease of the pain threshold”.
